Earlier results in patent publication US12268663B2, “Method for treating pruritus” (Pruvyc Pharma, LLC, priority 2020, dated 2025).

How the values were obtained:
histamine H1 receptor = histamine H1 receptor (Homo sapiens, UniProt P35367)
serotonin S2 receptor = serotonin S2 receptor (Homo sapiens, UniProt P28223)
[1] = system: connective tissue mast cells

Sequence of serotonin S2 receptor (P28223 whole entry): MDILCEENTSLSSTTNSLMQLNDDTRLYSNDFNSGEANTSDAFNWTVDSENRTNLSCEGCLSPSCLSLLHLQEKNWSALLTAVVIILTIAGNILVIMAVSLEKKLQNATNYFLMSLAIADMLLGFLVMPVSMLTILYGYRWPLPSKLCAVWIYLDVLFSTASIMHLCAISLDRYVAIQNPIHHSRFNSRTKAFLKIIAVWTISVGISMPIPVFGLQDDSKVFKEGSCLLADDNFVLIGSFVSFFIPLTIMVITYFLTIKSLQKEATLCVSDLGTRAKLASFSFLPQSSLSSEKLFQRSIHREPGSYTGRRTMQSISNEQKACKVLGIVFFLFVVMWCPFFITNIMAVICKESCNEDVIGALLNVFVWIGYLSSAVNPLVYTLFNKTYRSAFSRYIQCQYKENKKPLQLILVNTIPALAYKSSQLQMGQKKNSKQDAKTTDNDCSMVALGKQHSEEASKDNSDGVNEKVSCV
Sequence of histamine H1 receptor (P35367 whole entry): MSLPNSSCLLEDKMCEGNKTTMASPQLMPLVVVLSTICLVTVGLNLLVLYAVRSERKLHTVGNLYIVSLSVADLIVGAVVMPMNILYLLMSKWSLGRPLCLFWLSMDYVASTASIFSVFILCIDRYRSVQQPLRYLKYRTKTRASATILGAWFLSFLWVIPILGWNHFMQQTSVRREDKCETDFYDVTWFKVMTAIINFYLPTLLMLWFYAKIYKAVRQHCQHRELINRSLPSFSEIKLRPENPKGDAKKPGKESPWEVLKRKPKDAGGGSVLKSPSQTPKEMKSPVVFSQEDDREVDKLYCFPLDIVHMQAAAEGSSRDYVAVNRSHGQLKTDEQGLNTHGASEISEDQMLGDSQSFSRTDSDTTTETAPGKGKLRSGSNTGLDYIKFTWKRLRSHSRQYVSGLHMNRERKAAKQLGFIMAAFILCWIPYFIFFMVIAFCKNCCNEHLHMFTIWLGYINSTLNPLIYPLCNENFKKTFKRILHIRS

- binding to histamine H1 receptor (histamine H1 receptor): bind
- binding to serotonin S2 receptor (serotonin S2 receptor): bind
Structure (SMILES): CN(C)CC/C=C1/c2ccccc2COc2ccc(CC(=O)O)cc21 [Olopatadine, olopatadine]
- allergic mediator release from connective tissue mast cells [1]: inhibits allergic mediator release
